Experimental data reported in publication PMC7850424 (Journal of Enzyme Inhibition and Medicinal Chemistry, 2021).

Assays:
SARS-CoV-2 3CL^pro [1] = target: T1, SARS-CoV-2 3CL^pro (Severe acute respiratory syndrome coronavirus 2, UniProt P0DTD1); test: biochemical; conditions: for inhibition at 50 µM: read-out: % Inhibition at 50 μM, 50 μM compound; for % Inhibition at 50 μM: 50 μM compound
SARS-CoV-2 3CL^pro [2] = target: T1, SARS-CoV-2 3CL^pro; format: biochemical
[3] = test system: SARS-CoV-2 (C-Tan-nCoV Wuhan strain 01); test: microbe, parasite or virus in culture; format: cell-based
SARS-CoV 3CL^pro = SARS-CoV 3CL^pro (Severe acute respiratory syndrome coronavirus, UniProt P0C6X7); format: biochemical
SARS-CoV = conditions: cited from earlier work

Q: For `O=c1cc(-c2ccccc2)oc2ccc(O)c(O)c12` [5,6-Dihydroxyflavone], which inhibition at 50 µM (SARS-CoV-2 3CL^pro [1]) is on record?
A: 26.6 ± 0.4%

Q: With `O=c1cc(-c2ccccc2)oc2cc(O)c(O)cc12` [6,7-Dihydroxyflavone] as the compound, how does the inhibition at 50 µM (SARS-CoV-2 3CL^pro [1]) read?
A: 56.7 ± 2%

Q: Which “anti-SARS-CoV-2 3CLpro activity in cell lysate” value (SARS-CoV-2 3CL^pro [2]) does the source give for `O=c1cc(-c2ccccc2)oc2cc(O)c(O)c(O)c12` [Baicalein] here?
A: showed inhibition activity

Q: What about the “inhibition activity at the post-entry stage” value [3] of the same compound?
A: mainly active

Q: What about the EC50 ([3]; Severe acute respiratory syndrome coronavirus 2, Vero, 48 h) of the same compound?
A: 2900 nM

Q: And the “inhibition of SARS-CoV 3CLpro activity” value (SARS-CoV 3CL^pro)?
A: inhibit

Q: For `O=C(O)[C@H]1O[C@@H](Oc2cc3oc(-c4ccccc4)cc(=O)c3c(O)c2O)[C@H](O)[C@@H](O)[C@@H]1O` [Baicalin], which inhibition at 50 µM (SARS-CoV-2 3CL^pro [1]) is on record?
A: ~41%

Q: With `O=c1cc(-c2ccccc2)oc2cc(O)cc(O)c12` [Chrysin] as the compound, how does the inhibition at 50 µM (SARS-CoV-2 3CL^pro [1]) read?
A: 2.6 ± 1.1%

Q: Which inhibition at 50 µM (SARS-CoV-2 3CL^pro [1]) does the source give for `O=c1c(O)c(-c2ccc(O)cc2)oc2c(O)c(O)cc(O)c12` [Herbacetin] here?
A: 59.1 ± 1.9%

Q: For `O=c1c(O)c(-c2cc(O)c(O)c(O)c2)oc2cc(O)cc(O)c12` [Myricetin], which inhibition at 50 µM (SARS-CoV-2 3CL^pro [1]) is on record?
A: 30.8 ± 4.6%

Q: And the “inhibition of SARS-CoV” value (SARS-CoV)?
A: reported to inhibit

Q: Which “inhibition of SARS-CoV” value (SARS-CoV) does the source give for `O=c1cc(-c2ccc(O)cc2)oc2cc(O)c(O)c(O)c12` [Scutellarein] here?
A: reported to inhibit

Q: What does the source list for `O=C(O)[C@H]1O[C@@H](Oc2cc3oc(-c4ccc(O)cc4)cc(=O)c3c(O)c2O)[C@H](O)[C@@H](O)[C@@H]1O` [Scutellarin]?
A: % Inhibition at 50 μM (SARS-CoV-2 3CL^pro [1]; 50 µM): mild inhibitory activity; inhibition at 50 µM (SARS-CoV-2 3CL^pro [1]): 28.9 ± 1.6%

Q: For `COc1c(O)cc(O)c2c(=O)cc(-c3ccccc3)oc12` [Wogonin], which “% Inhibition at 50 μM” value (SARS-CoV-2 3CL^pro [1]) is on record?
A: not active

Q: What about the inhibition at 50 µM (SARS-CoV-2 3CL^pro [1]) of the same compound?
A: 6.1 ± 0.8%
